Test results published in patent publication US20260275280A1, “DIRECTED DIFFERENTIATION PROTOCOLS TO DERIVE BONE FIDE SPINAL SENSORY INTERNEURONS” (THE REGENTS OF THE UNIVERSITY OF CALIFORNIA, priority 2022, published 2026).
Values joined by “and” are separate entries in the source; they are usually repeats but may differ in a detail not shown here. Identical values can stand only once.

Key:
[1] = tested on: mESCs derived spinal NPCs; assay: Sufficiency of Wnt ligands or CHIR for dI fates (RT-qPCR at day 9); format: cell-based, mouse
Method: The mouse ESC line, MM13, was routinely maintained in ES cell media (DMEM+20% FBS) with 100u/ml of mouse leukocyte inducing factor (LIF). […] To prepare cells for the differentiation, ESC colonies were dissociated with 0.25% trypsin and plated on gelatin coated plates at 1:10 dilution to reduce MEF transfer. Cells cultured on gelatin coated plates and allowed to proliferate for 1-2 days. To initiate differentiation, cells were plated on 0.1% gelatin coated 24-well CellBIND dishes (Corning) at 20,000 cells/ml density in 0.5 ml/well N2/B27 medium that contains 10 ng/ml basic fibroblast growth factor (bFGF). The N2/B27 medium contains 1:1 portions of Advanced Dulbecco's modified Eagle Media (DMEM) F12 (Hyclone) and Neurobasal media (Thermo Fisher Scientific) supplemented with 0.5×N2, 1×B27 supplement (with Vitamin A), 2 mM L-glutamine, 0.1 mM 2-mercaptoethanol (ME), and 1% BSA. On day 1, small colonies of cells can be observed attached to the bottom of the wells. On day 2, cells were supplemented with 10 ng/ml bFGF and 5 μM CHIR99021 for 24 hours to induce a neuromesodermal identity (Gouti et al., 2014). On day 3, media was changed as follows: for protocol 1, cells were exposed to 100 nM RA for 48 hrs. For protocol 2, 10 ng/ml human recombinant BMP4 (Thermo Fisher Scientific) was added concomitantly with 100 nM RA (RA+BMP4) for 48 hrs. For protocol 3, cells were exposed to 100 nM RA for 24 hrs, followed by a pulse of RA+BMP4 for another 24 hours. To induce terminal differentiation in all three conditions, the medium containing growth factors was replaced with basic N2/B27 medium at day 5, and cell allowed to differentiate to day 9. At the end of the differentiation, the cultures were fixed for immunohistochemical analysis or lysed to obtain RNA for RNA-Seq or quantitative reverse transcriptase PCR analysis.
Quantitative (a) RT-PCR analysis: RNA was isolated with RNeasy Mini Kit (Qiagen, cat no. 74104), and converted to cDNA using Superscript IV First Strand Synthesis kit (Thermo Fisher Scientific). qRT-PCR was performed using SYBR Green PCR Master Mix (Applied Biosystems) on Roche 480 Lightcycler (Roche). The relative fold expression was calculated using 2-AACt method of comparing the expression of the target gene with that of the housekeeping gene glyceraldehyde 3-phosphate dehydrogenase (Gapdh). All experiments were repeated at least 2-3 times (technical replicates) from at least two independent differentiations (biological replicates), and data is represented as mean±SEM.
We assessed these models, first by determining the effect of canonical Wnts (Wnt1, Wnt2, and Wnt3a), a non-canonical Wnt (Wnt9b) and a small molecule Wnt agonist (CHIR99021) on dI identity in the RA±BMP4 protocols. When Wnts were added in combination with RA, they were unable to induce the dorsal-most dIs by day 9 (FIG. 14A). […] Thus, Wnts are not sufficient to direct dI fate identity.

mESC-derived neurons = assay: Single-cell RNA sequencing of day 9 cultures, assignment of dI identities; format: cell-based, mouse; details: scRNA-Seq
Method: Preparation of single cell suspension: Day 9 cultures from both protocol1 (RA) and protocol3 (RA+BMP4) were dissociated with 0.25% cold trypsin for 5 mins. Trypsin activity was stopped with the addition of trypsin inhibitor (Sigma-Aldrich) in 1:1 ratio. Cells were then pelleted by centrifugation at 1000RPM and resuspended in 1× PBS. The ratio of viable cells was determined using Trypan blue staining. Dead cells were removed using MACS dead cell removal kit (Miltenyi Biotec Inc.) by following the manufacturer's protocol. Eluted live cells were then suspended in 1× PBS containing 0.04% BSA solution (400 μg/ml) for the library preparation.
Library preparation, and sequencing: ~10,000 live cells/conditions were used to construct single-cell specific cDNA libraries using protocol described in 10× Genomics chromium single cell 3′ reagent kit (v3.1 Chemistry). Briefly, cells were partitioned into nanoliter-scale Gel-Beads-in-emulsion (GEM) using the 10× Chromium controller. Each GEM contains a unique barcode which is shared among the cDNA generated from a single cell. Cells were then lysed, and cDNA synthesis and feature barcoding were performed in the GEMs. The sequencing libraries were recovered using Magnetic separation and the quantity and quality of cDNA were assessed by Agilent 2100 expert High Sensitivity DNA Assay. cDNA samples were sequenced on 1 lane of NovaSeq 6000 S2 flow cell and reads were mapped to mouse mm10 genome using Cell Ranger v.3.0.2 to generate fasq files.
Filtering genes and cells: Seurat package v3.1.1 was used for the analysis. For each condition, genes expressing in less than 3 cells were removed and cells with >250 features were retained. PCA was used for dimension reduction (npcs=50) with top 3000 most variable genes. Raw count data were normalized using regularized negative binomial regression with SCT transformation. Cell clustering is done using Shared Nearest Neighbor (SNN) Graph method and cluster specific markers were identified by Wilcox Rank Sum test.
Each cell cluster was annotated by a combination of the following methods 1) the expression of known canonical cell-type markers 2) Gene Set Enrichment Analysis (GSEA) of cluster specific markers determined by FindMarkers function in Seurat.
Reclustering of neuronal clusters: From the entire single-cell dataset, neuronal cells were first identified by the expression of pan-neuronal markers-Tubb3 and Elavl1/2. Roughly 30% cells express these markers in both protocol 1 and protocol 3 and were thus annotated as the mature neurons. The neuronal populations were then extracted using the Seurat package in R, by clustering the cells expressing Tubb3 >2 (median normalized log expression levels) using the Shared Nearest Neighbor (SNN) Graph method. […] Clusters were visualized with Uniform Manifold Approximation Projection (UMAP) method and the unique cluster-specific markers were identified using FindMarker function in Seurat.
To assess whether protocols 1 and 3 direct distinct classes of dIs, we obtained single-cell transcriptomes from 9,704 cells using protocol 1 and 13,121 cells using protocol 3, taken at day 9 of the differentiation procedure (FIG. 2A). We performed Louvain clustering followed by Uniform Manifold Approximation and Projection (UMAP) plots, to visualize groups of transcriptionally distinct cell types (Becht et al., 2018). This pipeline identified 21 dusters of cells in both protocol 1 (FIG. 2C) and protocol 3 (FIG. 2D). In both conditions, ~30% of cells identify as being stressed; they cluster separately and display <2000 RNA counts (FIGS. 2C, 2D, 9A, 9B). ~2-4% cells are pluripotent stem cells, marked by Sox2, Pou5f1 (Oct4) and Nanog expression, while 5-8% cells are non-neural, either of mesodermal or cardiac neural crest identity, expressing Twist1, Runx2, and Hand2 (Han et al., 2021; Soldatov et al., 2019; Vincentz et al., 2013) (FIGS. 2C, 2D, 9A, 9B). […]

| SMILES | identity of the BMP4-mediated dI fates (Lhx2, Foxd3, IsI2) ([1]; RA+BMP4 protocol, Wnts 100 ng/ml or CHIR 5 μM for 24 hrs at day 5) | induction of BMP4 dependent dI fates (Lhx2, Foxd3, IsI1) ([1]; added with RA at day 4 for 24 hrs, Wnts 100 ng/ml, CHIR 5 μM) | Tubb3+ (Tuj1+) neurons of unknown neural identity (no dI specific markers) (mESC-derived neurons) | Tubb3+ (Tuj1+) neurons that are dI1 (mESC-derived neurons) | Tubb3+ (Tuj1+) neurons that are dI2 (mESC-derived neurons) [%] | Tubb3+ (Tuj1+) neurons that are dI4 (mESC-derived neurons) | Tubb3+ (Tuj1+) neurons that are dI5 (mESC-derived neurons) | Tubb3+ (Tuj1+) neurons that are dI6 (mESC-derived neurons) |
| --- | --- | --- | --- | --- | --- | --- | --- | --- |
| Cc1c[nH]c(-c2cnc(NCCNc3ccc(C#N)cn3)nc2-c2ccc(Cl)cc2Cl)n1 [CHIR, CHIR99021] | no significant effect | do not induce BMP4-dependent dI fates | – | – | – | – | – | – |
| CC1=C(/C=C/C(C)=C/C=C/C(C)=C/C(=O)O)C(C)(C)CCC1 [RA, retinoic acid] | – | – | 8.5% and ~ 8.5% | 5% and 5.2% | 5 | ~ 33% and 33% | 40.5% and 40.6% | 8% and 7.6% |
